Here are results for 23 compounds from US12221444B2, “5,6,7,7a-tetrahydrocyclopenta[f]pyrido[1,2-h][1,7]naphthyridin-11(4bH)-one compounds and methods of use” (GLAXOSMITHKLINE INTELLECTUAL, priority 2017, dated 2025).

In one series the test system is HBs antigens (HBsAg). In words: HepAD38 cells HBsAg ELISA. It counts as cell-based, Hepatitis B virus. Particulars: read-out: HepAD38, HBsAg (EC50), 7 days total treatment, HBsAg ELISA of cell media. The procedure:
(§1) Example 36 HepAD38 Cells—HBsAg ELISA and Cytotoxicity Assays
(§2) HepAD38 cells are maintained in collagen-coated flasks in cell culture medium (DMEM/F12 containing 10% fetal bovine serum (FBS), GlutaMax-1, penicillin/streptomycin, non-essential amino acids, Na pyruvate, 250 μg/mL geneticin, and 1 μg/mL doxycycline). Compound solutions are prepared in DMSO and compound are serially diluted for final concentrations of 4000, 1000, 250, 62.5, 15.6, 3.91, 0.977, 0.244, 0.061, and 0.015 ηM. The cells are then trypsinized and the cells are plate at 10,000 cells per well. Incubate plates are incubated at 37° C., 5% CO2 for 4 days. Media is replaced with new media with compound treatment. The plates are then incubated at 37° C., 5% CO2 for an additional 3 days for a total treatment time of 7 days. For antiviral response, HBsAg was measured using the HBsAg ELISA kit (International Immuno-diagnostics) with instructions provided. 100 uL of cell media samples was used for ELISA. The absorbance was read on the Spectramax® 384 plate reader (Molecular Devices) at 450 nm. For cell toxicity, the cells were used for CellTiter-Glo® Luminescent Cell Viability Assay reagent (Promega). The luminescence was read on Envision Multilabel Reader (Perkin Elmer). The data was analyzed compared to the DMSO control. % inhibition=(1−(unknown/high control))*100
(§3) The average % inhibition values from duplicate assay plates are then plotted in GraphPad Prism to determine one IC value: Four-parameter logistic curve with equation Y=Bottom+(Top-Bottom)/(1+10^((Log IC50−X)*HillSlope)) pIC50=[…]
(ELISA stands for enzyme-linked immunosorbent assay.)

The nature of series [1]: HepAD38 cells cytotoxicity assay (CellTiter-Glo Luminescent Cell Viability Assay). Type of series: cell-based. Particulars: human, 7 days total treatment, read-out: Cell tox (EC50, ηM). Here is the method:
as §1, §2, §3
(In general: Cellular ATP, detected with luciferase, serves as a proxy for viable cell number.)

As a reminder, the EC50 is the concentration that produces a half-maximal response. In the case of `COCCCOc1cc2c(nc1C1CC1)-c1cc(=O)c(C(=O)O)cn1C1C2CCC1(C)C` (racemic) [Example 4, 2-Cyclopropyl-3-(3-methoxypropoxy)-7,7-dimethyl-11-oxo-4b,5,6,7,7a,11-hexahydrocyclopenta[f]pyrido[1,2-h][1,7]naphthyridine-10-carboxylic acid (racemic cis)], the 50% effective concentration (EC50) in the series on HBs antigens (HBsAg) was < 1 nM. Also, in series [1], the half-maximal effective concentration (EC50) at 7 days is > 4000 nM.
For `CC(C)(C)C1Cc2cc(OCC3CC3)c(Cl)nc2-c2cc(=O)c(C(=O)O)cn21` (racemic) [Example 30, 6-(tert-Butyl)-2-chloro-3-(cyclopropylmethoxy)-10-oxo-6,10-dihydro-5H-pyrido[1,2-h][1,7]naphthyridine-9-carboxylic acid] the same measures were 1 to 10 nM and > 4000 nM.
For `COCCCOc1cc2c(nc1Cl)-c1cc(=O)c(C(=O)O)cn1C1C2CCC1(C)C` (racemic) [Example 34, 2-Chloro-3-(3-methoxypropoxy)-7,7-dimethyl-11-oxo-4b,5,6,7,7a,11-hexahydrocyclopenta[f]pyrido[1,2-h][1,7]naphthyridine-10-carboxylic acid], the EC50 in the series with HBs antigens (HBsAg) was < 1 nM. The half-maximal effective concentration (EC50) at 7 days in series [1] was > 4000 nM.
Regarding `COCCCOc1cc2c(nc1Cl)-c1cc(=O)c(C(=O)O)cn1[C@H]1[C@@H]2CCC1(C)C` (single isomer, unassigned) [Example 1], the EC50 in the series with HBs antigens (HBsAg) is < 1 nM. In series [1], the concentration giving a half-maximal response (EC50) at 7 days is > 4000 nM.
On the same counts, the results for `COCCCOc1cc2c(nc1Cl)-c1cc(=O)c(C(=O)O)cn1[C@@H]1[C@H]2CCC1(C)C` (single isomer, unassigned) [Example 2] are 10 to 100 nM and > 4000 nM.
Turning to `COCCCOc1cc2c(nc1C1CC1)-c1cc(=O)c(C(=O)O)cn1[C@@H]1C(C)(C)CCC21O` (single isomer, unassigned) [Example 5], the concentration giving a half-maximal response (EC50) with HBs antigens (HBsAg) is 1 to 10 nM. In series [1], the EC50 at 7 days was > 4000 nM.
On the same counts, the results for `CC(C)(C)C1Cc2cc(OCC3CC3)c(Cl)nc2-c2cc(=O)c(C(=O)O)cn21` (single isomer, unassigned; isomer 2) [Example 30-B, 6-(tert-Butyl)-2-chloro-3-(cyclopropylmethoxy)-10-oxo-6,10-dihydro-5H-pyrido[1,2-h][1,7]naphthyridine-9-carboxylic acid (isomer 2)] are > 100 nM and > 4000 nM.
On the same counts, the results for `CC(C)C1(C)Cc2cc(OCC3CC3)c(Cl)nc2-c2cc(=O)c(C(=O)O)cn21` (single isomer, unassigned; isomer-1) [Example 26, (2-Chloro-3-(cyclopropylmethoxy)-6-isopropyl-6-methyl-10-oxo-5,10-dihydro-6H-pyrido[1,2-h][1,7]naphthyridine-9-carboxylic acid-Isomer-1] are 1 to 10 nM and > 4000 nM.
For `COCCCOc1cc2c(nc1C1CC1)-c1cc(=O)c(C(=O)O)cn1C(C)(C(C)C)C2` (single isomer, unassigned; isomer-1) [Example 28, 2-Cyclopropyl-6-isopropyl-3-(3-methoxypropoxy)-6-methyl-10-oxo-5,10-dihydro-6H-pyrido[1,2-h][1,7]naphthyridine-9-carboxylic acid-Isomer-1] the same measures were < 1 nM and > 4000 nM.
`COCCCOc1cc2c(nc1C1CC1)-c1cc(=O)c(C(=O)O)cn1[C@H]1[C@@H]2CCC1(C)C` [Example 3, (4bR,7aS)-2-Cyclopropyl-3-(3-methoxypropoxy)-7,7-dimethyl-11-oxo-4b,5,6,7,7a,11-hexahydrocyclopenta[f]pyrido[1,2-h][1,7]naphthyridine-10-carboxylic acid]: in the series on HBs antigens (HBsAg), the half-maximal effective concentration (EC50) was < 1 nM. Besides, the half-maximal effective concentration (EC50) at 7 days in series [1] was > 4000 nM.
As to `COCCCOc1cc2c(nc1Cl)-c1cc(=O)c(C(=O)O)cn1[C@@H]1C(C)(C)CCC21O` (stereo partly drawn) [Example 6, (7aR)-2-Chloro-4b-hydroxy-3-(3-methoxypropoxy)-7,7-dimethyl-11-oxo-4b,5,6,7,7a,11-hexahydrocyclopenta[f]pyrido[1,2-h][1,7]naphthyridine-10-carboxylic acid], the EC50 in the series with HBs antigens (HBsAg) was in the range of 10 to 100 nM. Also, in series [1], the 50% effective concentration (EC50) at 7 days was > 4000 nM.
On the same counts, the results for `COCCCOc1cc2c(nc1Cl)-c1cc(=O)c(C(=O)O)cn1[C@@H]1C(C)(C)CCC21OC` (stereo partly drawn) [Example 7, (7aR)-2-Chloro-4b-methoxy-3-(3-methoxypropoxy)-7,7-dimethyl-11-oxo-4b,5,6,7,7a,11-hexahydrocyclopenta[f]pyrido[1,2-h][1,7]naphthyridine-10-carboxylic acid] are 10 to 100 nM and > 4000 nM.
For `COCCCOc1cc2c(nc1O)-c1cc(=O)c(C(=O)O)cn1[C@H]1[C@@H]2CCC1(C)C` [Example 8, (4bR,7aS)-2-Hydroxy-3-(3-methoxypropoxy)-7,7-dimethyl-11-oxo-4b,5,6,7,7a,11-hexahydrocyclopenta[f]pyrido[1,2-h][1,7]naphthyridine-10-carboxylic acid] the same measures were > 100 nM and > 4000 nM.
For `CC1(C)CC[C@@H]2c3cc(O)c(Cl)nc3-c3cc(=O)c(C(=O)O)cn3[C@@H]21` [Example 9, (4bR,7aS)-2-Chloro-3-hydroxy-7,7-dimethyl-11-oxo-4b,5,6,7,7a,11-hexahydrocyclopenta[f]pyrido[1,2-h][1,7]naphthyridine-10-carboxylic acid] the same measures were > 100 nM and > 4000 nM.
For the compound `COCCCOc1cc2c(nc1Cl)-c1cc(=O)c(C(=O)O)cn1C(C(C)(C)CO)C2` (stereo not shown) [Example 10, 2-Chloro-6-(1-hydroxy-2-methylpropan-2-yl)-3-(3-methoxypropoxy)-10-oxo-6,10-dihydro-5H-pyrido[1,2-h][1,7]naphthyridine-9-carboxylic acid], the EC50 with HBs antigens (HBsAg) is 1 to 10 nM. In addition, the EC50 at 7 days in series [1] is > 4000 nM.
On the same counts, the results for `COCCCOc1cc2c(nc1Cl)-c1cc(=O)c(C(=O)O)cn1[C@H](C(C)(C)C)C2` [Example 11, (S)-6-(tert-Butyl)-2-chloro-3-(3-methoxypropoxy)-10-oxo-6,10-dihydro-5H-pyrido[1,2-h][1,7]naphthyridine-9-carboxylic acid] are < 1 nM and > 4000 nM.
On the same counts, the results for `Cc1nc2c(cc1OCC1CC1)C[C@@H](C(C)(C)C)n1cc(C(=O)O)c(=O)cc1-2` [Example 12, (S)-6-(tert-Butyl)-3-(cyclopropylmethoxy)-2-methyl-10-oxo-6,10-dihydro-5H-pyrido[1,2-h][1,7]naphthyridine-9-carboxylic acid] are < 1 nM and > 4000 nM.
On the same counts, the results for `COCCCOc1cc2c(nc1C)-c1cc(=O)c(C(=O)O)cn1[C@H](C(C)(C)C)C2` [Example 13, (S)-6-(tert-Butyl)-3-(3-methoxypropoxy)-2-methyl-10-oxo-6,10-dihydro-5H-pyrido[1,2-h][1,7]naphthyridine-9-carboxylic acid] are < 1 nM and > 4000 nM.
Take `CC(C)(C)[C@@H]1Cc2cc(OCC3CC3)c(C3CC3)nc2-c2cc(=O)c(C(=O)O)cn21` [Example 14, (S)-6-(tert-Butyl)-2-cyclopropyl-3-(cyclopropylmethoxy)-10-oxo-6,10-dihydro-5H-pyrido[1,2-h][1,7]naphthyridine-9-carboxylic acid]: the EC50 in the series with HBs antigens (HBsAg) is < 1 nM. Further, the EC50 at 7 days in series [1] was > 4000 nM.
On the same counts, the results for `COCCCOc1cc2c(nc1C1CC1)-c1cc(=O)c(C(=O)O)cn1[C@H](C(C)(C)C)C2` [Example 15, (S)-6-(tert-Butyl)-2-cyclopropyl-3-(3-methoxypropoxy)-10-oxo-6,10-dihydro-5H-pyrido[1,2-h][1,7]naphthyridine-9-carboxylic acid] are < 1 nM and > 4000 nM.
For `COc1nc2c(cc1OCC1CC1)C[C@H](C(C)(C)C)n1cc(C(=O)O)c(=O)cc1-2` [Example 16, (R)-6-(tert-Butyl)-3-(cyclopropylmethoxy)-2-methoxy-10-oxo-6,10-dihydro-5H-pyrido[1,2-h][1,7]naphthyridine-9-carboxylic acid] the same measures were > 100 nM and > 4000 nM.
For `COc1nc2c(cc1OCC1CC1)C[C@@H](C(C)(C)C)n1cc(C(=O)O)c(=O)cc1-2` [Example 17, (S)-6-(tert-Butyl)-3-(cyclopropylmethoxy)-2-methoxy-10-oxo-6,10-dihydro-5H-pyrido[1,2-h][1,7]naphthyridine-9-carboxylic acid] the same measures were < 1 nM and > 4000 nM.
As for `CC(C)(C)[C@@H]1Cc2cc(OCC3CC3)c(O)nc2-c2cc(=O)c(C(=O)O)cn21` [Example 18, (S)-6-(tert-Butyl)-3-(cyclopropylmethoxy)-2-hydroxy-10-oxo-6,10-dihydro-5H-pyrido[1,2-h][1,7]naphthyridine-9-carboxylic acid], the EC50 in the series on HBs antigens (HBsAg) was > 100 nM. In addition, the EC50 at 7 days in series [1] was > 4000 nM.
